“And” between values parts separate entries of the source, which are not always exact repeats. Equal values may be shown once. Read-outs that look alike come from different tables or passages of the source.
Legend:
DENV-2 RL strain [1] = assay: Antiviral assay, viral RNA RT-qPCR, Vero cells; type: cell-based
DENV-2 RL strain [2] = assay: In vivo kinetics study, low viral inoculum (10^2 PFU); conditions: for In vivo kinetics, Mean of Log10: group mean
[3] = 0.2 mg/kg/d, day 1 p.i., individual mice
[4] = 0.2 mg/kg/d, day 2 p.i., individual mice
[5] = 0.2 mg/kg/d, day 3 p.i., individual mice
[6] = 0.2 mg/kg/d, day 4 p.i., individual mice
[7] = 0.2 mg/kg/d, day 5 p.i., individual mice
[8] = 2 mg/kg/d, day 1 p.i., individual mice
[9] = 2 mg/kg/d, day 2 p.i., individual mice
[10] = 2 mg/kg/d, day 3 p.i., individual mice
[11] = 2 mg/kg/d, day 4 p.i., individual mice
[12] = 2 mg/kg/d, day 5 p.i., individual mice
[13] = 20 mg/kg/d, day 1 p.i., individual mice
[14] = 20 mg/kg/d, day 2 p.i., individual mice
[15] = 20 mg/kg/d, day 3 p.i., individual mice
[16] = 20 mg/kg/d, day 4 p.i., individual mice
[17] = 20 mg/kg/d, day 5 p.i., individual mice
[18] = JNJ-1802 0.2 mg/kg/d, day 5 p.i., individual mice, 0.2 mg/kg/day

COc1cc(N[C@H](C(=O)c2c[nH]c3ccc(OC(F)(F)F)cc23)c2ccc(Cl)cc2OC)cc(S(C)(=O)=O)c1 [JNJ-1802]
EC90 (DENV-2 RL strain [1]; Dengue virus, DENV2, Vero, Vero): 0.275 ± 0.081 nM | EC50 (DENV-2 RL strain [1]; Dengue virus, DENV2, Vero, Vero cells, DENV-2RL, EXP1-EXP3, read-out: EC50, single experiments): 0.041 nM | EC90 (DENV-2 RL strain [1]; Dengue virus, DENV2, Vero, Vero cells, DENV-2RL, EXP1-EXP3, read-out: EC90, single experiments): 0.19 nM | EC50 (DENV-2 RL strain [1]; Dengue virus, DENV2, Vero, Vero cells, DENV-2RL, median, read-out: EC50 MEDIAN): 0.068 nM | EC90 (DENV-2 RL strain [1]; Dengue virus, DENV2, Vero, Vero cells, DENV-2RL, median, read-out: EC90 MEDIAN): 0.29 nM | EC50 (DENV-2 RL strain [1]; Dengue virus, DENV2, Vero, Vero, read-out: EC50): 0.062 ± 0.019 nM | EC50 (DENV-2 RL strain [1]; Vero cells, DENV-2RL, EXP1-EXP3, read-out: EC50, single experiments): 0.077 nM | EC90 (DENV-2 RL strain [1]; Vero cells, DENV-2RL, EXP1-EXP3, read-out: EC90, single experiments): 0.35 nM | viral load vs vehicle (DENV-2 RL strain [2]; 0.2 mg per kg per day b.i.d.): No significant reduction in viral load | In vivo kinetics, Mean of Log10 (DENV-2 RL strain [2]; 0.2 mg/kg/d, day 1 p.i.): 2.59 Log10 | In vivo kinetics, Copies/ml (DENV-2 RL strain [2]; [3]): 3.93E+02 Copies/ml | In vivo kinetics, Log10 of Copies/ml (DENV-2 RL strain [2]; [3]): 2.5940 Log10 | In vivo kinetics, Copies/ml (DENV-2 RL strain [2]; [4]): 3.93E+02 Copies/ml and 5.27E+03 Copies/ml | In vivo kinetics, Log10 of Copies/ml (DENV-2 RL strain [2]; [4]): 2.5940 Log10 and 3.7220 Log10 | In vivo kinetics, Mean of Log10 (DENV-2 RL strain [2]; 0.2 mg/kg/d, day 3 p.i.): 3.28 Log10 | In vivo kinetics, Copies/ml (DENV-2 RL strain [2]; [5]): 7.26E+03 Copies/ml and 3.93E+02 Copies/ml and 6.17E+04 Copies/ml | In vivo kinetics, Log10 of Copies/ml (DENV-2 RL strain [2]; [5]): 3.8609 Log10 and 2.5940 Log10 and 3.9537 Log10 and 4.7902 Log10 | In vivo kinetics, Mean of Log10 (DENV-2 RL strain [2]; 0.2 mg/kg/d, day 4 p.i.): 3.19 Log10 | In vivo kinetics, Copies/ml (DENV-2 RL strain [2]; [6]): 3.93E+02 Copies/ml and 1.02E+04 Copies/ml and 4.96E+03 Copies/ml and 2.86E+03 Copies/ml and 9.30E+03 Copies/ml | In vivo kinetics, Log10 of Copies/ml (DENV-2 RL strain [2]; [6]): 2.5940 Log10 and 4.0085 Log10 and 3.6952 Log10 and 3.4564 Log10 and 3.9686 Log10 | In vivo kinetics, Mean of Log10 (DENV-2 RL strain [2]; 0.2 mg/kg/d, day 5 p.i.): 5.08 Log10 | In vivo kinetics, Copies/ml (DENV-2 RL strain [2]; [7]): 8.17E+04 Copies/ml and 5.79E+05 Copies/ml and 1.02E+05 Copies/ml | In vivo kinetics, Log10 of Copies/ml (DENV-2 RL strain [2]; [7]): 4.9120 Log10 and 5.7623 Log10 and 4.6527 Log10 and 5.0605 Log10 and 5.0084 Log10 | In vivo kinetics, Mean of Log10 (DENV-2 RL strain [2]; 2 mg/kg/d, day 1 p.i.): 2.59 Log10 | In vivo kinetics, Copies/ml (DENV-2 RL strain [2]; [8]): 3.93E+02 Copies/ml | In vivo kinetics, Log10 of Copies/ml (DENV-2 RL strain [2]; [8]): 2.5940 Log10 | In vivo kinetics, Mean of Log10 (DENV-2 RL strain [2]; 2 mg/kg/d, day 2 p.i.): 2.59 Log10 | In vivo kinetics, Copies/ml (DENV-2 RL strain [2]; [9]): 3.93E+02 Copies/ml | In vivo kinetics, Log10 of Copies/ml (DENV-2 RL strain [2]; [9]): 2.5940 Log10 | In vivo kinetics, Mean of Log10 (DENV-2 RL strain [2]; 2 mg/kg/d, day 3 p.i.): 2.77 Log10 | In vivo kinetics, Copies/ml (DENV-2 RL strain [2]; [10]): 3.93E+02 Copies/ml and 6.33E+03 Copies/ml | In vivo kinetics, Log10 of Copies/ml (DENV-2 RL strain [2]; [10]): 2.5940 Log10 and 3.8013 Log10 | In vivo kinetics, Mean of Log10 (DENV-2 RL strain [2]; 2 mg/kg/d, day 4 p.i.): 2.59 Log10 | In vivo kinetics, Copies/ml (DENV-2 RL strain [2]; [11]): 3.93E+02 Copies/ml | In vivo kinetics, Log10 of Copies/ml (DENV-2 RL strain [2]; [11]): 2.5940 Log10 | In vivo kinetics, Mean of Log10 (DENV-2 RL strain [2]; 2 mg/kg/d, day 5 p.i.): 2.59 Log10 | In vivo kinetics, Copies/ml (DENV-2 RL strain [2]; [12]): 3.93E+02 Copies/ml | In vivo kinetics, Log10 of Copies/ml (DENV-2 RL strain [2]; [12]): 2.5940 Log10 | In vivo kinetics, Mean of Log10 (DENV-2 RL strain [2]; 20 mg/kg/d, day 1 p.i.): 2.59 Log10 | In vivo kinetics, Copies/ml (DENV-2 RL strain [2]; [13]): 3.93E+02 Copies/ml | In vivo kinetics, Log10 of Copies/ml (DENV-2 RL strain [2]; [13]): 2.5940 Log10 | In vivo kinetics, Mean of Log10 (DENV-2 RL strain [2]; 20 mg/kg/d, day 2 p.i.): 2.59 Log10 | In vivo kinetics, Copies/ml (DENV-2 RL strain [2]; [14]): 3.93E+02 Copies/ml | In vivo kinetics, Log10 of Copies/ml (DENV-2 RL strain [2]; [14]): 2.5940 Log10 | In vivo kinetics, Mean of Log10 (DENV-2 RL strain [2]; 20 mg/kg/d, day 3 p.i.): 2.75 Log10 | In vivo kinetics, Copies/ml (DENV-2 RL strain [2]; [15]): 3.93E+02 Copies/ml and 6.76E+03 Copies/ml | In vivo kinetics, Log10 of Copies/ml (DENV-2 RL strain [2]; [15]): 2.5940 Log10 and 3.8298 Log10 | In vivo kinetics, Mean of Log10 (DENV-2 RL strain [2]; 20 mg/kg/d, day 4 p.i.): 2.59 Log10 | In vivo kinetics, Copies/ml (DENV-2 RL strain [2]; [16]): 3.93E+02 Copies/ml | In vivo kinetics, Log10 of Copies/ml (DENV-2 RL strain [2]; [16]): 2.5940 Log10 | In vivo kinetics, Mean of Log10 (DENV-2 RL strain [2]; 20 mg/kg/d, day 5 p.i.): 2.76 Log10 | In vivo kinetics, Copies/ml (DENV-2 RL strain [2]; [17]): 3.93E+02 Copies/ml and 7.90E+03 Copies/ml | In vivo kinetics, Log10 of Copies/ml (DENV-2 RL strain [2]; [17]): 2.5940 Log10 and 3.8977 Log10 | effect on body weight (DENV-2 RL strain [2]; 20, 2 or 0.2 mg per kg per day b.i.d., 6 days): did not affect body weight | mean viral load vs vehicle (DENV-2 RL strain [2]; 20 and 2 mg per kg per day b.i.d., on 6 out of 8 days): reduced to undetectable levels | In vivo kinetics - viral RNA, Copies/ml (DENV-2 RL strain [2]; [18]): 4.57E+04 Copies/ml and 9.46E+04 Copies/ml and 4.38E+05 Copies/ml | In vivo kinetics - viral RNA, Log10 (DENV-2 RL strain [2]; [18]): 4.6597 Log10 and 4.9759 Log10 and 5.6413 Log10

From article PMC10033419, “Blocking NS3–NS4B interaction inhibits dengue virus in non-human primates” (Nature, 2023)
